Patent publication US8426420B2, “Heterocyclic pyrazole-carboxamidesas P2Y12 antagonists” (Sanofi, priority 2007, dated 2013)

System: human platelet rich plasma
Assay: Inhibition of human platelet aggregation, 96-well assay
Format: cell-based
Method: Inhibition of Human Platelet Aggregation
Alternatively to a binding assay which measures a compound's ability to bind to the P2Y12 receptor, the effect on cellular function was also determined. This ability of the compound was evaluated in two platelet aggregation assays: in 96-well plates and with the “Born”-method using single cuvettes.
Whole blood was collected from healthy volunteers using 20 ml syringes containing 2 ml of ACD-A Aqua-Citrat-Dextrose-A, Fresenius). The anticoagulated whole blood was transferred into 15 ml polypropylene conical tubes (10 ml per tube). The tubes were centrifuged for 15 minutes at 150×g at RT without using the centrifuge brake. This procedure leads to a pellet of cellular components and a supernatant of platelet rich plasma (PRP). The PRP layer was collected from each tube and pooled for each donor. To avoid carry over of cellular components following centrifugation, approximately 5 ml of PRP was left in the tube. The platelet concentration was determined using a Coulter Counter.
The 15 ml tubes containing the pellet of cellular components were centrifuged again for 10 minutes at 1940×g. This pelleted out most particulate blood constituents remaining, leaving a layer of Platelet Poor Plasma (PPP). The PPP was collected for each donor. The PRP layer, previously set aside, was diluted with PPP to a final concentration of approximately 3×E8 platelets/ml with the PPP.
The human platelet aggregation assay is performed in 96-well plates using a microtiter plate reader (SpectraMax Plus 384 with SoftMax Pro software from Molecular Devices). In the plate 15 μl of test compound at 10× final concentration in NaCl is mixed with 120 μl fresh PRP and incubated for 5 minutes. Following that incubation period, 15 μl of 40 μM ADP is added to the reaction mix. This addition of ADP is sufficient to induce aggregation in the absence of an inhibitor. The plates are then transferred to the microplate reader and aggregation is measured over 20 minutes. The instrument settings include:
Absorbance at 650 nm, run time 20 minutes with readings in 1-minute intervals and 50 seconds shaking between readings all performed at 37° C.

[1] = ADP-induced aggregation, human platelet rich plasma, 96-well plates, AUC of absorbance over 20 minutes

Compound | IC50 (Homo sapiens, Platelet, 20 min) [nM] | IC50 [1] [nM]
CCOC(=O)N1CCN(C(=O)[C@H](CCC(=O)O)NC(=O)c2cc(OCC(=O)N3CC(F)(F)C[C@H]3C(=O)NC3CC3)n(-c3ccccc3)n2)CC1 [Example 165, 4-[(S)-4-Carboxy-2-({5-[2-((S)-2-cycloproylcarbamoyl-4,4-difluoro-pyrrolidin-1-yl)-2-oxo-ethoxy]-1-phenyl-1H-pyrazole-3-carbonyl}-amino)-butyryl]-piperazine-1-carboxylic acid ethyl ester] |  | 340
CCOC(=O)N1CCN(C(=O)[C@H](CCC(=O)O)NC(=O)c2cc(OCC(=O)N3CC(F)(F)C[C@H]3C(=O)NCC3CC3)n(-c3ccccc3)n2)CC1 [Example 166, 4-[(S)-4-Carboxy-2-({5-[2-((S)-2-(cycloproylmethyl-carbamoyl)-4,4-difluoro-pyrrolidin-1-yl)-2-oxo-ethoxy]-1-phenyl-1H-pyrazole-3-carbonyl}-amino)-butyryl]-piperazine-1-carboxylic acid ethyl ester] |  | 80
C[C@H](NC(=O)c1cc(OCC(=O)N2CCC[C@H]2C(=O)NC2CCC2)n(-c2ccccc2)n1)C(=O)N1CCN(C(=O)OC2CCC2)CC1 [Example 193, 4-[(S)-2-({5-[2-((S)-2-Cyclobutylcarbamoyl-pyrrolidin-1-yl)-2-oxo-ethoxy]-1-phenyl-1H-pyrazole-3-carbonyl}-amino)-propionyl]-piperazine-1-carboxylic acid cyclobutyl ester] | 460 | 
CCOC(=O)N1CCN(C(=O)[C@H](CCC(=O)OCC2CCOC2)NC(=O)c2cc(OCC(=O)N3CCC[C@H]3C(=O)NC3CCC3)n(-c3ccccc3)n2)CC1 (stereo partly drawn) [Example 202, 4-[(S)-2-({5-[2-((S)-2-Cyclobutylcarbamoyl-pyrrolidin-1-yl)-2-oxo-ethoxy]-1-phenyl-1H-pyrazole-3-carbonyl}-amino)-4-(tetrahydro-furan-3-ylmethoxycarbonyl)-butyryl]piperazine-1-carboxylic acid ethyl ester] | 840 | 
CCOC(=O)N1CCN(C(=O)[C@H](CCC(=O)OCC2(C)COC2)NC(=O)c2cc(OCC(=O)N3CCC[C@H]3C(=O)NC3CCC3)n(-c3ccccc3)n2)CC1 [Example 203, 4-[(S)-2-({5-[2-((S)-2-Cyclobutylcarbamoyl-pyrrolidin-1-yl)-2-oxo-ethoxy]-1-phenyl-1H-pyrazole-3-carbonyl}-amino)-4-(3-methyl-oxetan-3-ylmethoxycarbonyl)-butyryl]-piperazine-1-carboxylic acid ethyl ester] | 490 | 
CCOC(=O)N1CCN(C(=O)[C@H](CCC(=O)OCC2(CC)COC2)NC(=O)c2cc(OCC(=O)N3CCC[C@H]3C(=O)NC3CCC3)n(-c3ccccc3)n2)CC1 [Example 204, 4-[(S)-2-({5-[2-((S)-2-Cyclobutylcarbamoyl-pyrrolidin-1-yl)-2-oxo-ethoxy]-1-phenyl-1H-pyrazole-3-carbonyl}-amino)-4-(3-ethyl-oxetan-3-ylmethoxycarbonyl)-butyryl]-piperazine-1-carboxylic acid ethyl ester] | 720 | 
CCOC(=O)N1CCN(C(=O)[C@H](CCC(=O)OCCC(C)OC)NC(=O)c2cc(OCC(=O)N3CCC[C@H]3C(=O)NC3CCC3)n(-c3ccccc3)n2)CC1 (stereo partly drawn) [Example 205, 4-[(S)-2-({5-[2-((S)-2-Cyclobutylcarbamoyl-pyrrolidin-1-yl)-2-oxo-ethoxy]-1-phenyl-1H-pyrazole-3-carbonyl}-amino)-4-(3-methoxy-butoxycarbonyl)-butyryl]-piperazine-1-carboxylic acid ethyl ester] | 460 | 
O=C(NCC(=O)N1CCN(C(=O)[C@H]2C[C@@H]2F)CC1)c1cc(OCC(=O)N2CCC[C@H]2C(=O)NC2CCC2)n(-c2ccccc2)n1 [Example 245, 5-[2-((S)-2-Cyclobutylcarbamoyl-pyrrolidin-1-yl)-2-oxo-ethoxy]-1-phenyl-1H-pyrazole-3-carboxylic acid {2-[4-((1R,2S)-2-fluoro-cyclopropanecarbonyl)-piperazin-1-yl]-2-oxo-ethyl}-amide] | 800 | 
CCOCCOC(=O)N1CCN(C(=O)CNC(=O)c2cc(OCC(=O)N3CCC[C@H]3C(=O)NC3CCC3)n(-c3ccccc3)n2)CC1 [Example 257, 4-[2-({5-[2-((S)-2-Cyclobutylcarbamoyl-pyrrolidin-1-yl)-2-oxo-ethoxy]-1-phenyl-1H-pyrazole-3-carbonyl}-amino)-acetyl]-piperazine-1-carboxylic acid 2-ethoxy-ethyl ester] | 240 | 

Further molecules by falling IC50 (Homo sapiens, Platelet, 20 min), results first:

IC50 (Homo sapiens, Platelet, 20 min) [nM] | Compound | IC50 [1] [nM]
950 | CCOC(=O)N1CCN(C(=O)[C@H](CC(C)C)NC(=O)c2cc(OCC(=O)N3CCC[C@H]3C(=O)NC3CCC3)n(-c3ccccc3)n2)CC1 [Example 215, 4-[(S)-2-({5-[2-((S)-2-Cyclobutylcarbamoyl-pyrrolidin-1-yl)-2-oxo-ethoxy]-1-phenyl-1H-pyrazole-3-carbonyl}-amino)-4-methyl-pentanoyl]-piperazine-1-carboxylic acid ethyl ester] | 
570 | CCOC(=O)N1CCN(C(=O)[C@H](CCC(=O)OCCN2CCOCC2)NC(=O)c2cc(OCC(=O)N3CCC[C@H]3C(=O)NC3CCC3)n(-c3ccccc3)n2)CC1 [Example 201, 4-[(S)-2-({5-[2-((S)-2-Cyclobutylcarbamoyl-pyrrolidin-1-yl)-2-oxo-ethoxy]-1-phenyl-1H-pyrazole-3-carbonyl}-amino)-4-(2-morpholin-4-yl-ethoxycarbonyl)-butyryl]-piperazine-1-carboxylic acid ethyl ester] | 
560 | O=C(NCC(=O)N1CCN(C(=O)[C@@H]2C[C@H]2c2ccccc2)CC1)c1cc(OCC(=O)N2CCC[C@H]2C(=O)NC2CCC2)n(-c2ccccc2)n1 [Example 246, 5-[2-((S)-2-Cyclobutylcarbamoyl-pyrrolidin-1-yl)-2-oxo-ethoxy]-1-phenyl-1H-pyrazole-3-carboxylic acid {2-oxo-2-[4-((1R,2R)-2-phenyl-cyclopropanecarbonyl)-piperazin-1-yl]-ethyl}-amide] | 
490 | O=C(NCC(=O)N1CCN(C(=O)OCc2ccccc2)CC1)c1cc(OCC(=O)N2CCC[C@H]2C(=O)NC2CCC2)n(-c2ccccc2)n1 [Example 275, 4-[2-({5-[2-((S)-2-Cyclobutylcarbamoyl-pyrrolidin-1-yl)-2-oxo-ethoxy]-1-phenyl-1H-pyrazole-3-carbonyl}-amino)-acetyl]-piperazine-1-carboxylic acid benzyl ester] | 
450 | CCOC(=O)N1CCN(C(=O)[C@H](CCC(=O)O)NC(=O)c2cc(OCC(=O)N3CCC[C@H]3c3nc(C4CC4)no3)n(-c3ccccc3)n2)CC1 [Example 180, 4-{(S)-4-Carboxy-2-[(5-{2-[(S)-2-(3-cyclopropyl-[1,2,4]oxadiazol-5-yl)-pyrrolidin-1-yl]-2-oxo-ethoxy}-1-phenyl-1H-pyrazole-3-carbonyl)-amino]-butyryl}-piperazine-1-carboxylic acid ethyl ester] | 
420 | CCOC(=O)N1CCN(C(=O)[C@H](CCC(=O)OCCCOC)NC(=O)c2cc(OCC(=O)N3CCC[C@H]3C(=O)NC3CCC3)n(-c3ccccc3)n2)CC1 [Example 200, 4-[(S)-2-({5-[2-((S)-2-Cyclobutylcarbamoyl-pyrrolidin-1-yl)-2-oxo-ethoxy]-1-phenyl-1H-pyrazole-3-carbonyl}-amino)-4-(3-methoxy-propoxycarbonyl)-butyryl]-piperazine-1-carboxylic acid ethyl ester] | 
180 | CCCOC(=O)N1CCN(C(=O)[C@H](CCC(=O)OC)NC(=O)c2cc(OCC(=O)N3CCC[C@H]3C(=O)NC3CCC3)n(-c3ccccc3)n2)CC1 [Example 190, 4-[(S)-2-({5-[2-((S)-2-Cyclobutylcarbamoyl-pyrrolidin-1-yl)-2-oxo-ethoxy]-1-phenyl-1H-pyrazole-3-carbonyl}-amino)-4-methoxycarbonyl-butyryl]-piperazine-1-carboxylic acid propyl ester] | 
